Experimental findings from patent publication US20240262842A1, “SMALL MOLECULE INHIBITORS OF KRAS G12C MUTANT” (Merck Sharp & Dohme LLC, priority 2021, published 2024) are described below.

Chain of biotinylated KRAS G12C protein (GMP-PNP loaded) and GST-tagged Ras binding domain of c-RAF (P01116 with tags, fused parts or gaps isoform P01116-2 G12C/C51S/C80L/C118S): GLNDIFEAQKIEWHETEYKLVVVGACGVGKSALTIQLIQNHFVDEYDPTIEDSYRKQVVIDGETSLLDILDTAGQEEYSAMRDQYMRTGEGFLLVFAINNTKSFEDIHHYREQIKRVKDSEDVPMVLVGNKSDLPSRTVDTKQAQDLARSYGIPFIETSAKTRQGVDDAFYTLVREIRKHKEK

This experiment addresses biotinylated KRAS G12C protein (GMP-PNP loaded) and GST-tagged Ras binding domain of c-RAF (Homo sapiens, UniProt P01116, C118S/C51S/C80L/G12C). In words: RAS:RAF-RBD binding assay (TR-FRET). The note with it: 30-minute incubation of compound with KRAS G12C before RAF-RBD; Table 4; read-out: IC50.
As to `Cc1nc2c3c(c(C(F)(F)F)cc2n1C)-c1cccn2c(C(=O)c4cc(F)c(NC(=O)/C=C/CN5CC6(CCOCC6)C5)c(F)c4)cc(c12)CCO3` [Example 280, (E)-2-(4-((4-(9,10-dimeth-yl-7-(trifluoromethyl)-13,14-dihydro-9H-imidazo[4″,5″:5′,6′]benzo-[1′,2′:2,3]oxocino[4,5,6-hi]indolizine-2-carbonyl)-2,6-difluorophenyl)amino)-4-oxobut-2-en-1-yl)-7-oxa-2-azaspiro[3.5]nonan-2-ium 2,2,2-trifluoroacetate], the IC50 amounted to 37.7 nM.
Under `CN1CCc2cc(C(=O)c3cc(F)c(NC(=O)/C=C/CNC4(C)COC4)c(F)c3)n3cccc(c23)-c2c(C(F)(F)F)cc3nn(C)cc3c21` (single isomer, unassigned) [Example 282, (E)-N-(4-((4-(10,12-dimethyl-7-(trifluorometh-yl)-10,12,13,14-tetrahydro-indolizino[8′,1′:4,5,6]-azocino[2,3-e]indazole-2-carbonyl)-2,6-difluoro-phenyl)amino)-4-oxobut-2-en-1-yl)-3-methyloxetan-3-aminium 2,2,2-trifluoro-acetate] stands 57.6 nM.
Then `Cc1nc2c3c(c(C(F)(F)F)cc2n1C)-c1cccn2c(C(=O)c4cc(F)c(NC(=O)/C=C/CN5CC6(CCOC6)C5)c(F)c4)cc(c12)CCO3` (single isomer, unassigned) [Example 284], with 40.4 nM; and `Cc1nc2c3c(c(C(F)(F)F)cc2n1C)-c1cccn2c(C(=O)c4cc(F)c(NC(=O)/C=C/CN5CCC[C@@]5(C)C(C)O)c(F)c4)cc(c12)CCO3` (single isomer, unassigned) [Example 258], with 6.69 nM; and `Cc1nc2c3c(c(C(F)(F)F)cc2n1C)-c1cccn2c(C(=O)c4cc(F)c(NC(=O)/C=C/CN5C[C@H](O)[C@@H](F)C5)c(F)c4)cc(c12)CCO3` [Example 275, (3S,4S)-1-((E)-4-((4-(9,10-dimethyl-7-(trifluorometh-yl)-13,14-dihydro-9H-imidazo[4″,5″:5′,6′]benzo-[1′,2′:2,3]oxocino[4,5,6-hi]indolizine-2-carbonyl)-2,6-difluorophenyl)amino)-4-oxobut-2-en-1-yl)-3-fluoro-4-hydroxypyrrol-idin-1-ium 2,2,2-trifluoro-acetate], with 57.5 nM.
Under `Cc1nc2c3c(c(C(F)(F)F)cc2n1C)-c1cccn2c(C(=O)c4cc(F)c(NC(=O)/C=C/CNCC5(CO)COC5)c(F)c4)cc(c12)CCO3` [Example 279, (E)-4-((4-(9,10-dimethyl-7-(trifluoromethyl)-13,14-dihydro-9H-imidazo-[4″,5″:5′,6′]benzo[1′,2′: 2,3]oxocino[4,5,6-hi]-indolizine-2-carbonyl)-2,6-difluorophenyl)amino)-N-((3-(hydroxymethyl)oxetan-3-yl)methyl)-4-oxobut-2-en-1-aminium 2,2,2-trifluoroacetate] stands 5.73 nM; under `COCc1nc2c3c(c(OC)cc2n1C)-c1cccn2c(C(=O)c4cc(F)c(NC(=O)/C=C/CN5CC6(CCCOC6)C5)c(F)c4)cc(c12)CCN3C` (single isomer, unassigned) [Example 292, mono((E)-2-(4-((2,6-difluoro-4-(7-methoxy-10-(methoxymethyl)-9,12-dimethyl-9,12,13,14-tetra-hydroimidazo[4″,5″: 5′,6′]benzo[1′,2′:2,3]azo-cino[4,5,6-hi]indolizin-11-ium-2-carbonyl)phenyl)-amino)-4-oxobut-2-en-1-yl)-6-oxa-2-azaspiro[3.5]-nonan-2-ium) mono(2,2,2-trifluoroacetate)], 84.9 nM; under `Cc1nc2c3c(c(C(F)(F)F)cc2n1C)-c1cccn2c(C(=O)c4cc(F)c(NC(=O)/C=C/CNC5CCOC5)c(F)c4)cc(c12)CCO3` (single isomer, unassigned) [Example 270, (E)-N-(4-(9,10-dimethyl-7-(trifluoromethyl)-13,14-dihydro-9H-imidazo-[4″,5″:5′,6′]benzo[1′,2′: 2,3]oxocino[4,5,6-hi]-indolizine-2-carbonyl)-2,6-difluorophenyl)-4-((tetrahydrofuran-3-yl)-amino)but-2-enamide], 12 nM.
In the case of `Cc1nc2c3c(c(C(F)(F)F)cc2n1C)-c1cccn2c(C(=O)c4cc(F)c(NC(=O)C=CCN5CCC5CC(=O)N(C)C)c(F)c4)cc(c12)CCO3` [Example 254, mono(2-(4-((E)-4-((2S)-2-(2-(dimethylamino)-2-oxoethyl)azetidin-1-ium-1-yl)but-2-enamido)-3,5-difluorobenzoyl)-9,10-dimethyl-7-(trifluorometh-yl)-13,14-dihydro-9H-imidazo[4″,5″:5′,6′]benzo-[1′,2′:2,3]oxocino[4,5,6-hi]indolizin-11-ium) mono(2,2,2-trifluoro-acetate)], the IC50 was determined as 20.9 nM.
Under `COCc1nc2c3c(c(OC)cc2n1C)-c1cccn2c(C(=O)c4cc(F)c(NC(=O)/C=C/[C@@H]5C[C@@H](F)CN5)c(F)c4)cc(c12)CCN3C` (atropisomer, axis not shown) [Example 293, (E)-N-(2,6-difluoro-4-(7-methoxy-10-(methoxymethyl)-9,12-dimethyl-9,12,13,14-tetrahydroimidazo[4″,5″:5′,6′]benzo[1′,2′:2,3]azocino[4,5,6-hi]indolizine-2-carbonyl)phenyl)-3-((2S,4R)-4-fluoropyrrolidin-2-yl)acrylamide] stands 16 nM; under `Cc1nc2c3c(c(C(F)(F)F)cc2n1C)-c1cccn2c(C(=O)c4cc(F)c(NC(=O)/C(F)=C/CN[C@@H]5CCOC5)c(F)c4)cc(c12)CCO3` (atropisomer, axis not shown) [Example 252, (R,Z)-N-(4-(9,10-dimethyl-7-(trifluoromethyl)-13,14-dihydro-9H-imidazo[4″,5″:5′,6′]benzo[1′,2′:2,3]oxocino[4,5,6-hi]indolizine-2-carbonyl)-2,6-difluorophenyl)-2-fluoro-4-((tetrahydrofuran-3-yl)amino)but-2-enamide], 25.7 nM.
Under `COCc1nc2c3c(c(OC)cc2n1C)-c1cccn2c(C(=O)c4cc(F)c(NC(=O)/C=C/CNCC5(F)CC5)c(F)c4)cc(c12)CCN3C` (atropisomer, axis not shown) [Example 287, (E)-N-(2,6-difluoro-4-(7-methoxy-10-(methoxymethyl)-9,12-dimethyl-9,12,13,14-tetrahydroimidazo[4″,5″:5′,6′]benzo[1′,2′:2,3]azocino[4,5,6-hi]indolizine-2-carbonyl)phenyl)-4-(((1-fluorocyclopropyl)methyl)amino)but-2-enamide] stands 16.6 nM.
Under `Cc1nc2c3c(c(C(F)(F)F)cc2n1C)-c1cccn2c(C(=O)c4cc(F)c(NC(=O)C=CCN5CC6CC5CO6)c(F)c4)cc(c12)CCO3` [Example 257, mono(2-(4-((E)-4-((1S,4S)-2-oxa-5-aza-bicyclo-[2.2.1]heptan-5-ium-5-yl)but-2-enamido)-3,5-difluorobenzoyl)-9,10-dimethyl-7-(trifluorometh-yl)-13,14-dihydro-9H-imidazo[4″,5″:5′,6′]benzo-[1′,2′:2,3]oxocino[4,5,6-hi]indolizin-11-ium) mono(2,2,2-trifluoro-acetate)] stands 9.69 nM.
